In series [1] the test system is actinic erythema induced by UVA+B irradiation. The series is described as follows: Reduction of actinic erythema induced by UVA+B irradiation, double blind test with placebo, visual reading. Format: in vivo, healthy volunteers. To be noted: when solubilized beforehand in PEG 300. How it is done:
The placebo (P1) and the active products (P2), (P3) and (P4) were thus used to carry out this test.
Several steps were followed: • Preliminary step: Evaluation of the individual Minimum Erythemal Dose (MEDi). • First step: Application of products P1 to P4 to a 35 cm^2 surface. The quantity applied is exactly 4 mg/cm^2. The zones for applying the products are modified by rotation from one volunteer to another. • Second step: Irradiation of the treated zones and of one untreated zone (control zone) fifteen minutes after application of the products, by positioning the MEDi at the third hole. • Third steps: Visual readings of the erythema 6 and 24 hours after the irradiation. a.) Choice of the Subjects […]
Beforehand, with the same apparatus, the individual MED of each subject was determined on the top of the back. […]
The irradiation times for the treated zones and for the untreated zone are determined so as to place the MEDi at the third hole.
The administered UV doses are calculated with the aid of a calibrated ROBERTSON-BERGER dosimeter equipped with a UVB reading head. The results are expressed directly as values read on the dosimeter and expressed as MED (1 MED=25 mJ/cm^2). […]
A numerical quantification corresponding to the degree of erythema is performed according to the following table: […]

Series [2] is described as follows: Tests of solubility of genistein in polyethylene glycols or their ethoxylated homologs (HPLC assay). To be noted: for Genistein assayed (% by weight in the solution): room temperature, stirred 30 minutes.
Protocol: Tests of Solubility of Genistein in Polyethylene Glycols or Their Ethoxylated Homologs Procedure:
The quantity of genistein used in powdered form is accurately weighed in a 250 ml beaker. A precise quantity of excipient is then added. The mixture is then vigorously stirred (mechanical stirring) at room temperature for 30 minutes. The product is then directly assayed according to the protocol described below.
The assay of genistein is carried out by reverse phase high-performance liquid chromatography (C18 stationary phase—acetic acid/acetonitrile mobile phase) and detection by UV spectrophotometry (absorption maximum of the compound).
Setting [3] is: excipient PEG 200, genistein used 12.0% by weight.
Where [4] appears, read: excipient PEG 300, genistein used 8.0% by weight.
[5] abbreviates: excipient PEG 300, genistein used 10.0% by weight.
Setting [6] is: excipient PEG 300, genistein used 12.0% by weight.
The mark [7] stands for this setting: excipient PEG 400, genistein used 12.0% by weight.
The mark [8] stands for this setting: excipient PEG 600, genistein used 12.0% by weight.

The results in this text go back to patent US7763647B2, “Topical solution containing a chromane or chromene derivative” (Laboratories Expanscience, priority 2001, dated 2010).

As for `O=c1c(-c2ccc(O)cc2)coc2cc(O)cc(O)c12` [Genistein], the “Antierythemal activity of genistein” value in series [1] is recorded as “increased”. In addition, in series [2] (PEG 300), the “Concentration at which genistein can be incorporated, in soluble form, into PEG 300” value was ~12 % by weight relative to the total weight of the solution. The “Genistein assayed (% by weight in the solution)” value in series [2] (excipient Laureth 11 (oxyethylenated C12 alcohol), genistein used 12.0% by weight) is 9.5 % by weight in the solution; in series [2] (excipient Liponic EG1 (ethoxylated glycerol), genistein used 10.0% by weight) it was 9.1 % by weight in the solution; in series [2] (setting [3]) it was 10.9 % by weight in the solution; in series [2] (setting [4]) it was 7.6 % by weight in the solution; in series [2] (setting [5]), 9.3 % by weight in the solution; in series [2] (setting [6]) it was 11.2 % by weight in the solution. Further, the “Genistein assayed (% by weight in the solution)” value in series [2] (setting [7]) is 10.1 % by weight in the solution; in series [2] (excipient PEG400 dilaurate (fatty diester of PEG), genistein used 12.0% by weight), 9.5 % by weight in the solution; in series [2] (setting [8]), 10.7 % by weight in the solution. Moreover, the Solubility result in series [2] (excipient Laureth 11, genistein used 12.0% by weight) is “high”; in series [2] (excipient Liponic EG1, genistein used 10.0% by weight) it was “high”; in series [2] (setting [3]), “high”; in series [2] (setting [4]), “high”; in series [2] (setting [5]) it was “high”; in series [2] (setting [6]), “high”. Further, the Solubility result in series [2] (setting [7]) is reported as “high”; in series [2] (excipient PEG400 dilaurate, genistein used 12.0% by weight), “high”; in series [2] (setting [8]) it was “high”.
